The source of these data is patent publication US9744156B2, “Methods and compositions for enhanced transungual delivery of AR-12” (Arno Therapeutics, Inc., priority 2015, dated 2017).

Where two headings read alike, the source gives them in different places.

The nature of series [1]: In vitro permeation across cadaver nail plate in modified Franz diffusion cell. The series is classed as in vitro ADME, human. As for the experimental part:
The permeation study was performed in Franz diffusion cells fitted with nail adapter. The finger nails (from all fingers except the little finger) of human cadavers obtained from ScienceCare were used for the transport studies. The nail plates were cleaned with water, and nail plates of 400-450 micron thickness were selected and visually inspected for presence of any cracks or pores. After mounting on the diffusion cell, the donor as well as the receiver compartments were filled with phosphate buffered saline […] and allowed to equilibrate for 3 hours for complete hydration of the nail plate. The electrical resistivity across the nail plate was measured prior to removal of the buffer to check the intactness of the nail plate after hydration.
The permeation testing was performed using modified Franz diffusion cell. The cell consisted of two compartments: a (1) a donor compartment for placing the drug solution/formulation and (2) a receiver compartment containing the buffer in which the drug diffuses. A nail holder is placed between the two compartments. The nail holder is curved to accommodate the contour of nail plate and secures the nail between the upper and lower part of the holder.
The donor compartment was filled with 500 microliters of drug solution (50 mg/ml) prepared in ethyl alcohol. For the control sample, no enhancer was incorporated. In the test cells, the enhancer was incorporated (5% PEG or 5% dexpanthenol or both). The donor compartment was covered with parafilm to minimize the loss of solvent. The drug solution was removed every 2 hours, the donor compartment was washed two times with 500 microliters of alcohol, and fresh drug solution (50 mg/ml) was placed in the donor compartment. […] The receiver compartment fluid was sampled at predetermined time points (e.g., 0, 12, 24, 36, 48, 60, 72, 84, 96, 108, 120, 132, 144, 156, 192, 204, […]) and the amount of drug permeated across the nail plate was quantitated by high pressure liquid chromatography.

For series [2] the following is noted: 5% enhancer in 5% w/v AR-12 solution in ethanol, 24 h; FIG. 1.

Turning to `NCC(=O)Nc1ccc(-n2nc(C(F)(F)F)cc2-c2ccc3c(ccc4ccccc43)c2)cc1` [AR-12, 2-amino-N-(4-(5-(phenanthren-2-yl)-3-(trifluoromethyl)-1H-pyrazol-1-yl)phenyl)acetamide], the “amount of drug permeated in a one week period across the nail plate” value in series [1] (control, no enhancer, drug solution 50 mg/ml in ethyl alcohol, one week) is 658 ± 306 ng. Consider `CC(C)(CO)[C@@H](O)C(=O)NCCCO` [dexpanthenol], for which the “enhancement of permeation flux of AR-12 across the nail plate” value in series [1] (5% enhancer in AR-12 solution (50 mg/ml in ethyl alcohol) versus control without enhancer, one week, FIG. 2) is recorded as “four fold”. Moreover, the “suitability as enhancer for trans-ungual delivery of AR-12 (AR-12 accumulated in nail plate)” value in series [2] is given as “preferred enhancers”. For polyethylene glycol 400 [PEG-400], in series [1], the “enhancement of permeation flux of AR-12 across the nail plate” value was “about six fold”.
